In patent US20120107248A1, “IMAGING GASTROINTESTINAL VOLUMES AND MOTILITY” (MAYO FOUNDATION FOR MEDICAL EDUCATION AND RESEARCH, priority 2009, published 2012):

How the values were obtained:
[1] = in vivo; cited from earlier work
gastric wall = experiment: Abdominal MRI studies in mice with automated segmentation (Example 5); format: in vivo
Method: Ten abdominal MRI studies in mice were performed under three conditions in sequential order: fasting pre-contrast, fasting post-contrast, and postprandial post-contrast (after feeding with 80 μL egg yolk). Five studies each were conducted with a commercially-available gadolinium contrast agent (gadopentetic acid, Magnevist™) and with Gd-DOTA-3COOH-S-Pantoprazole. Mice were administered 2.5 mg of Magnevist or Gd-DOTA-3COOH-S-Pantoprazole in a volume of 10 μL intravenously. […] In these images the gastric lumen is marked “s.” The images were analyzed by standard techniques (i.e., full-width-half-maximum method). Following administration of Magnevist, the uptake signal increased diffusely, as shown by the arrow. […] In the Gd-DOTA-3COOH-S-Pantoprazole study, the algorithm only identified the stomach boundary after contrast, i.e., fasting and postprandial images, but the conjugate was capable of discriminating the stomach wall from its contents and surrounding tissues. Comparison of gastric wall signal intensity over time after intravenous Magnevist and Gd-DOTA-3COOH-S-Pantoprazole is shown in FIG. 9. Data were sampled at 120 equidistant points around the gastric wall.

**Q.** With `O=C([O-])CN(CCN(CC(=O)[O-])CC(=O)O)CCN(CC(=O)[O-])CC(=O)O.[Gd+3]` [Gd(DTPA), gadolinium diethylenetriaminepentaacetate] as the compound, how does the blood clearance time [1] read?
**A.** approximately 2 minutes

**Q.** Which results are given for `CNC[C@H](O)[C@@H](O)[C@H](O)[C@H](O)CO.CNC[C@H](O)[C@@H](O)[C@H](O)[C@H](O)CO.O=C([O-])CN(CCN(CC(=O)[O-])CC(=O)O)CCN(CC(=O)[O-])CC(=O)O.[Gd+3]` [Magnevist, gadopentetic acid, reference compound]?
**A.** splenic uptake / gastro-splenic boundary (gastric wall; 2.5 mg intravenously, FIG. 7): marked splenic uptake; gastric wall signal and automated segmentation of the gastric outline (gastric wall; 2.5 mg intravenously, full-width-half-maximum method, FIG. 6): could not accurately identify the gastric outline; gastric wall signal intensity over time: difference between fasting post contrast and postprandial post contrast images (gastric wall; 120 equidistant points around the gastric wall, FIG. 9): higher difference; gastric wall thickness measurements (gastric wall; segmentation algorithm, FIG. 7 and FIG. 8): overestimates stomach wall thickness
